From ChEMBL document CHEMBL1143868, “Synthesis, SAR, and Evaluation of 4-[2,4-Difluoro-5-(cyclopropylcarbamoyl)phenylamino]pyrrolo[2,1-f][1,2,4]triazine-based VEGFR-2 kinase inhibitors” (Bioorg Med Chem Lett, 2008)

What was measured:
[1] = AUC (0 to 4 hrs) in mouse at 50 mg/kg, po; type: ADME, organism-based; parameters: time < 4 hr, dose 50 mg/kg, route oral; conditions: plasma
[2] = Tmax in mouse at 50 mg/kg, po; type: ADME, organism-based; parameters: dose 50 mg/kg, route oral; conditions: in vivo
[3] = Cmax in mouse at 50 mg/kg, po; type: ADME, organism-based; parameters: dose 50 mg/kg, route oral; conditions: in vivo
Liver = assay: Metabolic stability in mouse liver microsomes per mg of protein at 3 uM after 10 mins; type: ADME, Microsome
Liver microsomes = assay: Metabolic stability in human liver microsomes per mg of protein at 3 uM after 10 mins; type: ADME, Microsome

| AUC(0-t) at 4 h [1] [µM·h] | Tmax [2] [h] | Cmax [3] [µM] | Stability (Liver) [nmol/min/mg] | Stability (Liver microsomes) [nmol/min/mg] | Structure (SMILES) |
| --- | --- | --- | --- | --- | --- |
| 53.2 | 4 | 15 | 0.007 | 0.023 | CC(C)c1c(-c2nnc(OC3CCNCC3)o2)cn2ncnc(Nc3cc(C(=O)NC4CC4)c(F)cc3F)c12 |
| 0.2 | 0.5 | 0.1 | 0 | 0.012 | CC(C)c1c(-c2nnc(NCCCCN)o2)cn2ncnc(Nc3cc(C(=O)NC4CC4)c(F)cc3F)c12 |
| 21.7 | 1 | 8 | 0.02 | 0.098 | CC(C)c1c(-c2nnc(NCCCN(C)C)o2)cn2ncnc(Nc3cc(C(=O)NC4CC4)c(F)cc3F)c12 |
